From patent US20160176867A1, “MODIFIED BET-PROTEIN-INHIBITING DIHYDROQUINOXALINONES AND DIHYDROPYRIDOPYRAZINONES” (BAYER PHARMA AKTIENGESELLSCHAFT, priority 2013, published 2016)

Legend:
[1] = target: T1, BRD4 bromo domain 2 [BRD4(2)] (Homo sapiens, UniProt O60885); assay: BRD4/acetylated peptide H4 binding assay (TR-FRET), BRD4 bromo domain 2; conditions: inhibition of BRD4(2)/Ac-H4 peptide interaction
T1 construct: N-terminally His6-tagged BRD4(2) (amino acids 357-445); made in house; host or cells: E. coli
Text: (§1) Protein-Protein Interaction Assay: BRD4/Acetylated Peptide H4 Binding Assay
To assess the BRD4(2) binding strength of the substances described in this application, the ability thereof to inhibit the interaction between BRD4(2) and acetylated histone H4 in a dose-dependent manner was quantified.
(§2) For this purpose, a time-resolved fluorescence resonance energy transfer (TR-FRET) assay was used, which measures the binding between N-terminally His6-tagged BRD4(2) (amino acids 357-445) and a synthetic acetylated histone H4 (Ac-H4) peptide with sequence SGRGK(Ac)GGK(Ac)GLGK(Ac)GGAK(Ac)RHRKVLRDNGSGSK-biotin. The recombinant BRD4(2) protein produced in-house according to Filippakopoulos et al., Nature, 2010, 468:1119-1123 and Cell, 2012, 149:214-231, was expressed in E. coli and purified by means of (Ni-NTA) affinity and (Sephadex G-75) size exclusion chromatography. The Ac-H4 peptide can be purchased, for example, from Biosyntan (Berlin, Germany).
(§3) In the assay, typically 11 different concentrations of each substance (0.1 nM, 0.33 nM, 1.1 nM, 3.8 nM, 13 nM, 44 nM, 0.15 μM, 0.51 μM, 1.7 μM, 5.9 μM and 20 μM) were analysed as duplicates on the same microtitre plate. For this purpose, 100-fold concentrated solutions in DMSO were prepared by serial dilutions (1:3.4) of a 2 mM stock solution into a clear, 384-well microtitre plate (Greiner Bio-One, Frickenhausen, Germany). From this, 50 nl were transferred into a black test plate (Greiner Bio-One, Frickenhausen, Germany). The test was started by the addition of 2 μl of a 2.5-fold concentrated BRD4(2) solution (final concentration typically 100 nM in the 5 μl of reaction volume) in aqueous assay buffer [50 mM HEPES pH 7.5, 50 mM sodium chloride (NaCl); 50 mM potassium fluoride (KF); 0.25 mM CHAPS and 0.05% serum albumin (BSA)] to the substances in the test plate. This was followed by a 10-minute incubation step at 22° C. for the pre-equilibration of putative complexes between BRD4(2) and the substances. Subsequently, 3 μl of a 1.67-fold concentrated solution (in assay buffer) consisting of Ac-H4 peptide (83.5 nM) and TR-FRET detection reagents [83.5 nM anti-6His-XL665 (Cisbio Bioassays, Codolet, France) and 12.52 nM streptavidin-Eu), (Perkin Elmer, #W1024)] in assay buffer were added.
(§4) The mixture was then incubated in the dark at 22° C. for one hour and then at 4° C. for at least 3 hours and for no longer than overnight. The formation of BRD4(2)/Ac-H4 complexes was determined by the measurement of the resonance energy transfer from the streptavidin-Eu chelate to the anti-6His-XL665 antibody present in the reaction. For this purpose, the fluorescence emission was measured at 620 nm and 665 nm after excitation at 330-350 nm in a TR-FRET measuring instrument, for example a Rubystar or Pherastar (both from BMG Lab Technologies, Offenburg, Germany) or a Viewlux (Perkin-Elmer). The ratio of the emissions at 665 nm and at 622 nm was taken as an indicator of the amount of BRD4(2)/Ac-H4 complexes formed.
(§5) The data (ratios) obtained were normalized, with 0% inhibition corresponding to the mean from the measurements for a set of controls (typically 32 data points) in which all the reagents were present. In these, in place of test substances, 50 nl of DMSO (100%) were used. Inhibition of 100% corresponded to the mean from the measurements for a set of controls (typically 32 data points) in which all the reagents except BRD4(2) were present. The IC50 was determined by regression analysis based on a 4-parameter equation (minimum, maximum, IC50, Hill; Y=max+(min−max)/(1+(X/IC50)Hill)).

[2] = target: T2, BRD4 bromo domain 1 [BRD4(1)] (Homo sapiens, UniProt O60885); assay: BRD4/acetylated peptide H4 binding assay (TR-FRET), BRD4 bromo domain 1; conditions: inhibition of BRD4(1)/Ac-H4 peptide interaction
T2 construct: N-terminally His6-tagged BRD4(1) (amino acids 67-152); made in house; host or cells: E. coli
Text: as §1
To assess the BRD4(1) binding strength of the substances described in this application, the ability thereof to inhibit the interaction between BRD4(1) and acetylated histone H4 in a dose-dependent manner was quantified.
as §2, with “BRD4(1)” for “BRD4(2)”, “67-152)” for “357-445)”, “GRGK(Ac)GGK(Ac)GLGK(Ac)GGAK(Ac)RHGSGSK-biotin.” for “SGRGK(Ac)GGK(Ac)GLGK(Ac)GGAK(Ac)RHRKVLRDNGSGSK-biotin.”
as §3, with “concentrated BRD4(1)” for “concentrated BRD4(2)”, “typically 10” for “typically 100”, “chloride (NaCl),” for “chloride (NaCl); 50 mM potassium fluoride (KF);”, “between BRD4(1)” for “between BRD4(2)”, “substances.” for “substances. Subsequently, 3 μl of a 1.67-fold concentrated solution (in assay buffer) consisting of Ac-H4 peptide (83.5 nM) and TR-FRET detection reagents [83.5 nM anti-6His-XL665 (Cisbio Bioassays, Codolet, France) and 12.52 nM streptavidin-Eu), (Perkin Elmer, #W1024)] in assay buffer were added.”
as §4, with “BRD4(1)/Ac-H4” for “BRD4(2)/Ac-H4”, “cryptate” for “chelate”
as §5, with “BRD4(1)” for “BRD4(2)”

| Compound | IC50 [1] | IC50 [2] |
| --- | --- | --- |
| C[C@@H]1C(=O)N(C)c2ccc(Nc3cccc(C(=O)N(C)C)c3)cc2N1Cc1ccccc1 [Example 107, 3-{[(3R)-4-benzyl-1,3-dimethyl-2-oxo-1,2,3,4-tetrahydroquinoxalin-6-yl]amino}-N,N-dimethylbenzamide] | 117 nM | 385 nM |
| COCCN1c2nc(Nc3cccc(C(=O)NC4CCN(C)CC4)c3)ccc2N(C)C(=O)[C@@H]1C (stereo in doubt) [Example 120, 3-{[(3S)-4-(2-methoxyethyl)-1,3-dimethyl-2-oxo-1,2,3,4-tetrahydropyrido[2,3-b]pyrazin-6-yl]amino}-N-(1-methylpiperidin-4-yl)benzamide] | 4460 nM | 6870 nM |
| C[C@@H]1C(=O)N(C)c2ccc(Nc3cccc(S(=O)(=O)NCCN(C)C)c3)nc2N1C1CCNCC1 [Example 128, N-[2-(dimethylamino)ethyl]-3-{[(3R)-1,3-dimethyl-2-oxo-4-(piperidin-4-yl)-1,2,3,4-tetrahydropyrido[2,3-b]pyrazin-6-yl]amino}-benzenesulphonamide] | 137 nM | 66 nM |
| C[C@@H]1C(=O)N(C)c2ccc(Nc3cccc(S(=O)(=O)N(C)C)c3)nc2N1C1CCN(C(=O)OC(C)(C)C)CC1 [Example 61, tert-butyl 4-[(3R)-6-{[3-(dimethylsulphamoyl)-phenyl]amino}-1,3-dimethyl-2-oxo-2,3-dihydropyrido[2,3-b]pyrazin-4(1H)-yl]piperidine-1-carboxylate] | 166 nM | 208 nM |
| CC1C(=O)N(C)c2ccc(Nc3cccc(S(=O)(=O)N4CCN(C)CC4)c3)nc2N1c1ccc(N2CCN(C(=O)OC(C)(C)C)CC2)cc1 (stereo not drawn) [Example 67, tert-butyl 4-{4-[1,3-dimethyl-6-({3-[(4-methylpiperazin-1-yl)sulphonyl]phenl}-amino)-2-oxo-2,3-dihydropyrido[2,3-b]pyrazin-4(1H)-yl]phenyl}piperazine-1-carboxylate] | 5190 nM | 4380 nM |
| CC1C(=O)N(C)c2ccc(N(C)c3cccc(S(=O)(=O)N(C)C)c3)cc2N1Cc1ccccc1 (stereo not drawn) [Example 110, 3-[(4-benzyl-1,3-dimethyl-2-oxo-1,2,3,4-tetrahydroquinoxalin-6-yl)(methyl)amino]-N,N-dimethylbenzenesulphon-amide] | 320 nM | 1290 nM |
| C[C@@H]1C(=O)N(C)c2ccc(Nc3cccc(C(=O)N[C@H]4CC[C@H](N5CCN(CC6CC6)CC5)CC4)c3)nc2N1C1CCCCC1 [Example 99, 3-{[(3R)-4-cyclohexyl-1,3-dimethyl-2-oxo-1,2,3,4-tetrahydropyrido[2,3-b]pyrazin-6-yl]amino}-N-{trans-4-[4-(cyclopropyl-methyl)piperazin-1-yl]cyclohexyl}benzamide] | 274 nM | 551 nM |
| C[C@@H]1C(=O)N(C)c2ccc(Nc3cccc(C(=O)NCCN4CCN(C)CC4)c3)nc2N1C1CCCCC1 [Example 84, 3-{[(3R)-4-cyclohexyl-1,3-dimethyl-2-oxo-1,2,3,4-tetrahydropyrido[2,3-b]pyrazin-6-yl]amino}-N-[2-(4-methlpiperazin-1-yl)ethyl]benzamide] | 155 nM | 268 nM |
| COc1c(Nc2ccc3c(n2)N(C2CCOCC2)[C@H](C)C(=O)N3C)cccc1C(=O)N[C@H]1CC[C@H](N2CCN(CC3CC3)CC2)CC1 [Example 91, N-{trans-4-[4-(cyclo-propylmethyl)piperazin-1-yl]cyclohexyl}-3-{[(3R)-1,3-dimethyl-2-oxo-4-(tetrahydro-2H-pyran-4-yl)-1,2,3,4-tetrahydropyrido[2,3-b]pyrazin-6-yl]amino}-2-methoxybenzamide] | 325 nM | 439 nM |
| C[C@@H]1C(=O)N(C)c2ccc(Nc3cccc(C(=O)N[C@H]4CC[C@H](N5CCN(CC6CC6)CC5)CC4)c3)cc2N1C1CCOCC1 [Example 108, N-{trans-4-[4-(cyclopropylmethyl)piperazin-1-yl]cyclohexyl}-3-{[(3R)-1,3-dimethyl-2-oxo-4-(tetrahydro-2H-pyran-4-yl)-1,2,3,4-tetrahydroquinoxalin-6-yl]amino}benzamide] | 520 nM | 575 nM |
| Cc1cccc(N2c3nc(Nc4cccc(S(=O)(=O)NC5CCN(C)CC5)c4)ccc3N(C)C(=O)C2C)c1 (stereo not drawn) [Example 65, 3-{[1,3-dimethyl-4-(3-methylphenyl)-2-oxo-1,2,3,4-tetrahydropyrido-[2,3-b]pyrazin-6-yl]amino}-N-(1-methylpiperidin-4-yl)benzenesulphonamide] | 589 nM | 386 nM |
| Cc1ccc(Nc2ccc3c(n2)N(C2CCOCC2)[C@H](C)C(=O)N3C)cc1S(N)(=O)=O [Example 63, 5-{[(3R)-1,3-dimethyl-2-oxo-4-(tetrahydro-2H-pyran-4-yl)-1,2,3,4-tetrahydropyrido[2,3-b]pyrazin-6-yl]amino}-2-methylbenzene-sulphonamide] | 158 nM | 163 nM |
